We go through four molecules from PMC3858566, “Identification of a novel peptide that blocks basic fibroblast growth factor-mediated cell proliferation” (Oncotarget, 2013).

Where no end group is shown, it is not given here.

Assay [1] relates to B16-F10 murine melanoma cells. The following applies: 48 h, 10 nM.
Protocol: Cells were seeded in 96-well plates (5 × 10^3 cells/well) in DMEM containing 10% FBS. After incubation at 37°C for 24 h, the culture medium was replaced by DMEM containing 0.4% FBS to starve the cells for 24 h. The medium was then replaced by DMEM containing 30 ng/ml bFGF, or 30 ng/mL bFGF plus peptide at various concentrations. After culturing for 48 h, the number of viable cells was determined by the methylthiazoletetrazolium (MTT) method as previously described [5].
Assay [2] relates to bFGF receptors on Balb/c 3T3 cells. Nature of the assay: Receptor binding assay (125I-bFGF competition, Scatchard analysis). The procedure:
The recombinant bFGF was iodinated by the modified chloramine-T method. Briefly, bFGF (5 μg/50 μ1 in 0.5 M phosphate buffer, pH 7.4) was incubated with chloramine-T (20 μg/10 µl of phosphate buffer) and ^125I-labeled sodium (1.12 mCi/10 μ1) at room temperature for 55 sec. The reaction was immediately terminated by the addition of sodium metabisulflte (250 μg/200 μl) and 1% potassium iodide (100 μl), and the mixture was applied to a Sephadex G-50 column (1×20 cm) preequilibrated in 50 mM phosphate buffer containing 0.1% BSA to separate ^125I-labeled bFGF from free ^125I.
Confluent Balb/c 3T3 cells (0.5×10^6/well) were incubated with binding buffer (DMEM, 20mM HEPES, pH7.4) containing ^125I-bFGF (50000 cpm) and different concentrations of unlabeled ligand (bFGF or the synthetic peptide) for 2.5 h at 4°C. For nonspecific binding, cells were incubated with ^125I-bFGF (50000 cpm) and an excess of unlabeled bFGF (200 nM). The cells were washed with (3 × 1 ml) cold PBS (50 mM, PH7.4), and lysed with 1% Triton X-100 (500 μl). The radioactivity of the extracts was measured in a γ counter. Specific binding was determined as the difference between total and nonspecific binding, and data were analyzed by Scatchard analysis.

In assay [3] the test system is B16-F10 cells. Nature of the assay: Flow cytometric analysis of cell cycle. The class given is cell-based, murine. The following applies: 48 h. On the procedure:
Cells were starved for 24 h, and treated with 30 ng/ml bFGF or 30 ng/mL bFGF plus serially-diluted peptides for 48 h. After fixing in 70% ice-cold ethanol for 30 min at 4 °C and washing with PBS for 3 times, cells were stained with propidium iodide (PI) in the dark at room temperature for 30 min. The ModFit DNA analysis program was applied to analyze the percentages of cells at various phases of the cell cycle.

Assay [4] relates to bFGF receptors on Balb/c 3T3 cells. The following applies: range of values previously published; cited from earlier work.
For assay [5], the target named is T1, bFGF receptors (FGFR1c/FGFR2c on Balb/c 3T3 cells) (Mus musculus, UniProt P16092).
T1 chain: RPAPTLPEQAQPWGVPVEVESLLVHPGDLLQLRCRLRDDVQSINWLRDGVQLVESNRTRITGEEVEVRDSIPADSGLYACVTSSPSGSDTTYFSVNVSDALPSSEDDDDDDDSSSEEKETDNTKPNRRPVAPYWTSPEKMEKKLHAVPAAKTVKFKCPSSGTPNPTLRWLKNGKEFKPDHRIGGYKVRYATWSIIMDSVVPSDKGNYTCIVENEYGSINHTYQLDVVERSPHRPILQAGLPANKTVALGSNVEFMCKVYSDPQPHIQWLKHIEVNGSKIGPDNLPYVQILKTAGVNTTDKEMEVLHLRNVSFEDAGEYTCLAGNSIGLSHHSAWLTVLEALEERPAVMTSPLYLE
Put plainly: 125I-bFGF competition binding on cells.

Setting [6] is: 30 ng/ml bFGF alone, mean ± SD of 3 independent experiments.

For LSPPRYPGGGS-NH2 [P9 peptides], the “inhibition of bFGF-stimulated proliferation” value in assay [1] was around 90%.

Take “^125I-bFGF: recombinant bFGF iodinated by the modified chloramine-T method”: the “receptor population, 125I-bFGF binding, without P9” value in assay [2] is “approximately 9,600 sites/cell”.

In assay [3] (setting [6]), basic fibroblast growth factor [bFGF] came in with a G0/G1 of 26.45 ± 1.01% and a G2/M of 7.46 ± 0.56%. For the same molecule, the S in assay [3] (30 ng/ml bFGF alone, mean ± SD of 3 independent experiments, * P<0.01 vs control group) was 66.09 ± 1.22%. For the same molecule, in assay [3] (bFGF alone, 30 ng/ml), the “effect of bFGF on cell cycle” value is “significantly increased the percentage of S phase cells, and decreased the ratio of G0/G1 phase cells”. Also, in assay [4], the “receptor sites per cell of high affinity bFGF receptors, previously published” value is 0.2-10 ×10^4 sites/cell.

Broadly, the IC50 is the point on the concentration scale where inhibition reaches its midpoint. Take LSPPRYPGGGS-NH2 [P9 peptide]: in assay [5], the IC50 was around 2.5 nM.
